Literature values, collected in patent publication US20030171260A1, “Compositions and methods utilizing hydroxamates to scavenge oxidant toxins” (priority 2002, published 2003).
Structures can show the parent of a compound that is named as a salt.

Compound	oral LD50 dose (rat; in vivo, po)	intraperitoneal LD50 dose (rat; intraperitoneal) [mg/kg]	subcutaneous LD50 dose (rat; subcutaneous)	time to leave the vascular space after administration [min]
CCCCOc1ccc(CC(=O)NO)cc1 [bufexamac]	3,370 mg/kg	805	> 5,000 mg/kg	
CC(=O)N(O)CCCCCNC(=O)CCC(=O)N(O)CCCCCNC(=O)CCC(=O)N(O)CCCCCN [desferoxamine mesylate]				≤ 60
